From patent US9713651B2, “Compositions, methods, and systems for the synthesis and use of imaging agents” (Lantheus Medical Imaging, Inc., priority 2012, dated 2017)

Assay: Tissue distribution of 18F imaging agents in rats
Type: in vivo, Male Sprague Dawley rats
Details: rat, iv tail vein ~15 μCi, ± SEM; for Blood, imaging agent distribution at 15 min / Brain, imaging agent distribution at 15 min / Femur, imaging agent distribution at 15 min / Heart, imaging agent distribution at 15 min / Kidney, imaging agent distribution at 15 min / Liver, imaging agent distribution at 15 min / Lung, imaging agent distribution at 15 min / Muscle, imaging agent distribution at 15 min / Pancreas, imaging agent distribution at 15 min / Spleen, imaging agent distribution at 15 min: 15 min post injection; for Blood, imaging agent distribution at 60 min / Brain, imaging agent distribution at 60 min / Femur, imaging agent distribution at 60 min / Heart, imaging agent distribution at 60 min / Kidney, imaging agent distribution at 60 min / Liver, imaging agent distribution at 60 min / Lung, imaging agent distribution at 60 min / Muscle, imaging agent distribution at 60 min / Pancreas, imaging agent distribution at 60 min / Spleen, imaging agent distribution at 60 min: 60 min post injection
Experimental: Anesthetized (sodium pentobarbital at 50 mg/kg, ip or isoflurane gas inhalation) Male Sprague Dawley rats (250-350 g) received an iv injection of the imaging agent (˜15 μCi) via the tail vein. At 15 or 60 min post injection, the animals were euthanized and the required tissue samples harvested. All samples were then weighed and counted for radioactivity (Wallac Wizard 1480 or Packard Cobra II Autogamma); regional tissue uptake of the imaging agent was thus expressed as a percentage of the total injected dose per gram of tissue (% ID/g).
The generic structure depicted below highlights specific structural features evaluated during distribution experiments.

Row | Blood, imaging agent distribution at 15 min [% ID/g] | Brain, imaging agent distribution at 15 min [% ID/g] | Femur, imaging agent distribution at 15 min [% ID/g] | Heart, imaging agent distribution at 15 min [% ID/g] | Kidney, imaging agent distribution at 15 min [% ID/g] | Liver, imaging agent distribution at 15 min [% ID/g] | Lung, imaging agent distribution at 15 min [% ID/g] | Muscle, imaging agent distribution at 15 min [% ID/g] | Pancreas, imaging agent distribution at 15 min [% ID/g] | Spleen, imaging agent distribution at 15 min [% ID/g] | Blood, imaging agent distribution at 60 min [% ID/g] | Brain, imaging agent distribution at 60 min [% ID/g] | Femur, imaging agent distribution at 60 min [% ID/g] | Heart, imaging agent distribution at 60 min [% ID/g] | Kidney, imaging agent distribution at 60 min [% ID/g] | Liver, imaging agent distribution at 60 min [% ID/g] | Lung, imaging agent distribution at 60 min [% ID/g] | Muscle, imaging agent distribution at 60 min [% ID/g] | Pancreas, imaging agent distribution at 60 min [% ID/g] | Spleen, imaging agent distribution at 60 min [% ID/g] | Compound
1 | 0.49 ± 0.02 |  | 0.80 ± 0.12 | 1.66 ± 0.06 | 2.25 ± 0.05 | 2.33 ± 0.09 | 0.49 ± 0.04 | 0.19 ± 0.00 |  | 0.41 ± 0.01 | 0.26 ± 0.04 |  | 0.78 ± 0.22 | 1.58 ± 0.13 | 1.17 ± 0.20 | 1.34 ± 0.22 | 0.27 ± 0.03 | 0.15 ± 0.04 |  | 0.20 ± 0.04 | CC(C)(C)n1ncc(OCc2ccc(OCCOCCF)cc2)c(Cl)c1=O [Example 67B]
2 | 1.11 | 0.74 | 0.21 | 3.63 | 3.81 | 3.61 | 1.00 | 0.14 |  | 0.37 | 1.00 | 0.69 | 0.26 | 4.66 | 1.71 | 1.49 | 0.96 | 0.18 |  | 0.23 | CC(C)(C)n1ncc(OCc2ccc(OCCF)cc2)c(Cl)c1=O [Example 67D]
3 | 0.17 ± 0.02 | 0.97 ± 0.11 | 0.50 ± 0.04 | 4.80 ± 0.27 | 2.61 ± 0.18 | 0.66 ± 0.09 | 0.39 ± 0.05 | 0.77 ± 0.09 | 0.82 ± 0.07 | 0.36 ± 0.08 | 0.26 ± 0.03 | 0.62 ± 0.04 | 0.69 ± 0.05 | 3.61 ± 0.45 | 0.98 ± 0.04 | 0.53 ± 0.06 | 0.34 ± 0.03 | 0.69 ± 0.17 | 0.43 ± 0.05 | 0.25 ± 0.01 | [2H]C([2H])(OCCF)c1ccc(COc2cnn(C(C)(C)C)c(=O)c2Cl)cc1 [Example 67E]
4 | 0.50 ± 0.18 | 0.59 ± 0.03 | 0.40 ± 0.05 | 2.19 ± 0.36 | 0.88 ± 0.05 | 0.33 ± 0.10 | 0.46 ± 0.12 | 0.35 ± 0.04 | 0.41 ± 0.03 | 0.32 ± 0.11 | 0.47 ± 0.04 | 0.39 ± 0.05 | 0.58 ± 0.06 | 0.98 ± 0.16 | 0.44 ± 0.02 | 0.32 ± 0.03 | 0.38 ± 0.03 | 0.33 ± 0.01 | 0.26 ± 0.01 | 0.28 ± 0.03 | CC(OCCF)c1ccc(COc2cnn(C(C)(C)C)c(=O)c2Cl)cc1 (centres unmarked) [Example 67G]

Further lines, the compound ahead of its results:

Row | Compound | Blood, imaging agent distribution at 15 min [% ID/g] | Brain, imaging agent distribution at 15 min [% ID/g] | Femur, imaging agent distribution at 15 min [% ID/g] | Heart, imaging agent distribution at 15 min [% ID/g] | Kidney, imaging agent distribution at 15 min [% ID/g] | Liver, imaging agent distribution at 15 min [% ID/g] | Lung, imaging agent distribution at 15 min [% ID/g] | Muscle, imaging agent distribution at 15 min [% ID/g] | Pancreas, imaging agent distribution at 15 min [% ID/g] | Spleen, imaging agent distribution at 15 min [% ID/g] | Blood, imaging agent distribution at 60 min [% ID/g] | Brain, imaging agent distribution at 60 min [% ID/g] | Femur, imaging agent distribution at 60 min [% ID/g] | Heart, imaging agent distribution at 60 min [% ID/g] | Kidney, imaging agent distribution at 60 min [% ID/g] | Liver, imaging agent distribution at 60 min [% ID/g] | Lung, imaging agent distribution at 60 min [% ID/g] | Muscle, imaging agent distribution at 60 min [% ID/g] | Pancreas, imaging agent distribution at 60 min [% ID/g] | Spleen, imaging agent distribution at 60 min [% ID/g]
5 | CC(C)(C)n1ncc(OCc2cccc(COCCF)c2)c(Cl)c1=O [Example 67A] | 0.03 ± 0.01 | 0.14 ± 0.05 | 0.06 ± 0.02 | 0.65 ± 0.36 | 0.38 ± 0.08 | 0.08 ± 0.03 | 0.07 ± 0.01 | 0.09 ± 0.04 | 0.15 ± 0.05 | 0.05 ± 0.01 | 0.11 ± 0.02 | 0.14 ± 0.03 | 0.17 ± 0.04 | 0.84 ± 0.22 | 0.23 ± 0.03 | 0.11 ± 0.02 | 0.11 ± 0.02 | 0.18 ± 0.04 | 0.13 ± 0.03 | 0.09 ± 0.02
6 | CC(C)(C)n1ncc(OCc2ccc(OCCCF)c(Cl)c2)c(Cl)c1=O [Example 67C] | 0.26 ± 0.05 | 0.42 ± 0.01 | 0.33 ± 0.01 | 4.21 ± 0.29 | 3.04 ± 0.21 | 2.67 ± 0.17 | 0.50 ± 0.08 | 0.24 ± 0.04 |  | 0.37 ± 0.05 | 0.20 ± 0.07 | 0.44 ± 0.03 | 0.84 ± 0.07 | 4.54 ± 0.29 | 1.77 ± 0.25 | 0.65 ± 0.12 | 0.61 ± 0.32 | 0.26 ± 0.02 |  | 0.18 ± 0.02
7 | CC(C)(C)n1ncc(OCc2cccc(OCCF)c2)c(Cl)c1=O [Example 67F] | 0.32 ± 0.05 | 0.50 ± 0.04 | 0.44 ± 0.04 | 1.92 ± 0.15 | 1.04 ± 0.10 | 0.40 ± 0.04 | 0.41 ± 0.03 | 0.60 ± 0.06 | 0.52 ± 0.04 | 0.28 ± 0.01 | 0.48 ± 0.01 | 0.38 ± 0.01 | 0.57 ± 0.04 | 0.87 ± 0.02 | 0.60 ± 0.03 | 0.39 ± 0.04 | 0.44 ± 0.03 | 0.43 ± 0.07 | 0.48 ± 0.01 | 0.31 ± 0.01
8 | CC(C)n1ncc(OCc2ccc(COCCF)cc2)c(Cl)c1=O [Example 67H] | 0.45 ± 0.02 | 0.43 ± 0.05 | 0.36 ± 0.04 | 1.14 ± 0.09 | 0.78 ± 0.01 | 0.46 ± 0.01 | 0.41 ± 0.01 | 0.38 ± 0.02 | 0.44 ± 0.03 | 0.34 ± 0.03 | 0.55 ± 0.02 | 0.43 ± 0.02 | 0.71 ± 0.06 | 0.55 ± 0.03 | 0.49 ± 0.03 | 0.40 ± 0.02 | 0.42 ± 0.01 | 0.31 ± 0.02 | 0.32 ± 0.02 | 0.35 ± 0.02
